Data reported in article PMC8467532, “DYRK1A Kinase Inhibitors Promote β-Cell Survival and Insulin Homeostasis” (Cells, 2021).

Key:
NFAT = NFAT luciferase reporter assay in HEK 293 NFAT cell line expressing DYRK1A; assay type: cell-based
Method: The Renilla luciferase reporter assay was performed in HEK 293 NFAT cell line, constitutively expressing DYRK1A, NFAT and Renilla luciferase under the control of an NFAT-RE promoter. The cells were seeded at 10,000 per well in 96-well white plates (Cellstar, Greiner; Burlington, MA, United States). The following day cells were incubated with the indicated concentration of inhibitor for 30 min, then the medium was changed, and cells were stimulated with 1 μM ionomycin and 10 nM PMA for 5 h. Next, the cell lysate was harvested to measure luciferase activity with Renilla-Glo Luciferase Assay System (Promega, Wisconsin, United States). All experiments were carried out in triplicates.

INS-1E cells = assay: Cell cycle analysis (propidium iodide); assay type: cell-based, rat; conditions: 5 µM, 24 h
Method: To synchronize cell cultures, we used the serum starvation protocol. INS-1E cells were seeded in a 6-well plate in a growth medium with 20% FBS overnight. Then the cultures were rinsed by PBS and change to a serum-free medium. After serum starvation for 24 h, cells were released into the cell cycle by the addition of serum and 5 µM inhibitor solution for 24 h. The cells were then detached from the plate using trypsin. Then after washing, they were incubated with 50 µg/mL propidium iodide for 15 min in the dark. Cells were analyzed with the BDAccuri flow cytometer and calculated using FlowJo software.

[1] = system: hiPSC-derived pancreatic organoids; assay: Insulin secretion assay in hiPSC-derived β-cell organoids (ELISA); assay type: cell-based, human; parameters: key to insulin secretion (ELISA): ↑: moderate; ↑↑: most potent
Method: Differentiation of hiPSC into iPSC-derived β-cell islets was carried out following the protocol established by Pellegrini et al. for pluripotent stem cells with slight modifications. A day before differentiation, 800,000 cells were seeded on coated with Geltrex (Gibco) 12 wells plate in Essential 8 medium (Gibco) with Y-27632 10 µM (Abcam). The following culture media were used for differentiation:
M1 medium: MCDB131 (Gibco) + 8 mM D-(þ)-Glucose (Sigma) + 1.23 g/L NaHCO3 (Sigma) + 2% BSA (Sigma) + 0.25 mM Vitamin C (Sigma) + 1% Pen/Strep (Lonza, Basel, Switzerland) + 1% L-glutamine (Lonza);
M2 medium: MCDB131 + 20 mM D-Glucose + 1.754 g/L NaHCO3 + 2% BSA + 0.25 mM Vitamin C + Heparin 10mg/mL (Sigma) + 1% Pen/Strep + 1% L-glutamine. All media were filter-sterilized through a 0.22 µm bottle top filter (Corning, New York, NY, USA). For sequential culture medium changes, small molecules and growth factors were added to the base media immediately before daily exchange. Media switches were as follows: days 0–3: STEMdiff™ Definitive Endoderm Kit ([…], Vancouver, Canada) used following manufacturer instructions; days 4–6: M1 medium + 50 ng/mL KGF (Peprotech, London, UK) + 1:50,000 ITS-X (Invitrogen, Carlsbad, CA, USA); days 7–8: M1 medium + 50 ng/mL KGF + 0.25 µM Sant1 (Sigma) + […] Retinoic acid (RA) (Sigma) + 500 nM PdBU (Millipore, Berlington, MA, United States) + 1:200 ITS-X + 200 nM LDN193189 (only Day 7) (Sigma); days 9–13: M1 medium + 50 ng/mL KGF + 0.25 µM Sant1 + 100 nM RA + 1:200 ITS-X; days 14–18: M2 medium + 0.25 µM Sant1 + 100 nM RA + 1 µM XXI (Millipore) + 10 µM Alk5i II (Selleckchem, Munich, Germany) + 1 µM L-3,30,5-Triiodothyronine (T3) (Sigma) + 20 ng/mL Betacellulin (R&D, Minneapolis, MN, USA) + 1:200 ITS-X.
The Insulin ELISA (Ultra Sensitive) was used to quantify insulin levels in control and treated organoids and isolated islets from the mouse pancreas (Crystal Chem, Downers Grove, IL, USA). Islets were homogenized in lysis buffer. Obtained buffer lysates and medium samples (after GSIS) were analyzed for total protein level and subsequently processed following the manufacturer’s protocol.

`O=c1ccc2cnc3ccc(-c4cn[nH]c4)cc3c2n1-c1ccc(F)cc1C(F)(F)F` [AC27, 1-(4-fluoro-2-(trifluoromethyl)phenyl)-9-(1H-pyrazol-4-yl)benzo[h][1, 6]naphthyridin-2-one] was tested, and the “activity relative to harmine in NFAT assay” value (NFAT; 1 µM AC27 gives same activity as 10 µM harmine) was ~10 times, the “increase of NFAT activity” value (NFAT; low concentration range 0.03 µM–1 µM) was ≤ 6 fold and the “number of cells in the G2/M phase” value (INS-1E cells) was “increase”. The insulin release ([1]; GSIS, compared with untreated control cells) was “markedly increased insulin release” and the “insulin secretion (ELISA)” value ([1]; Table 2, hiPSC) was “↑”.
